Experimental data published in PMC4774894 (Journal of natural products, 2015).

Test system: HIV-1 NL4-3
Conditions: for selectivity index CC50/EC50: CC50 (MT4 cells) / EC50 (HIV-1 NL4-3 in MT4); for selectivity index (SI) (bound or span stated in text for a group of compounds): bound or span over the group named

SMILES | selectivity index CC50/EC50 | selectivity index (SI) (bound or span stated in text for a group of compounds)
C=C(C)[C@]12C[C@@H](COC(=O)c3ccccc3)[C@]34OC5(CCCCCCC[C@H](C)[C@@H]6[C@@H]3[C@]3(O[C@]6(C)OC3=O)[C@H](O)[C@@]3(COC(=O)CCCCCCCCCCCCCCC)O[C@H]3[C@H]4[C@H]1O5)O2 [Compound 1, Stelleralide D] | ≥18 | < 50
C=C(C)[C@]12C[C@@H](COC(=O)c3ccccc3)[C@]34OC5(CCCCCCC[C@H](C)[C@@H]6[C@@H]3[C@]3(O[C@]6(C)OC3=O)[C@H](O)[C@@]3(COC(=O)CCCCCCC/C=C\C/C=C\CCCCC)O[C@H]3[C@H]4[C@H]1O5)O2 [Compound 2, Stelleralide E] | ≥1 | < 50
C=C(C)[C@]12C[C@@H](COC(C)=O)[C@@]34OC5(O[C@@H]1[C@@H]3[C@@H]1O[C@]1(CO)[C@@H](O)[C@@]1(O)[C@H]4[C@H]([C@H](C)[C@@H]1OC(=O)c1ccccc1)[C@H](C)C[C@@H](OC(=O)c1ccccc1)CCCC[C@H]5O)O2 [Compound 3, Stelleralide F] | ≥12903 | more than 10 000
C=C(C)[C@]12C[C@@H](COC(=O)c3ccccc3)[C@@]34OC5(O[C@@H]1[C@@H]3[C@@H]1O[C@]1(CO)[C@@H](O)[C@@]1(O)[C@H]4[C@H]([C@H](C)[C@@H]1OC(=O)c1ccccc1)[C@H](C)C[C@@H](OC(=O)c1ccccc1)CCCC[C@H]5O)O2 [Compound 4, Stelleralide G] | ≥15342 | more than 10 000
C=C(C)[C@]12C[C@@H](COC(=O)c3ccccc3)[C@@]34OC5(O[C@@H]1[C@@H]3[C@@H]1O[C@]1(COC(=O)c1ccccc1)[C@@H](O)[C@@]1(O)[C@H]4[C@H]([C@H](C)[C@@H]1O)[C@H](C)CCCCCC[C@H]5O)O2 [Compound 5, Stelleralide H] | ≥13163 | more than 10 000
C=C(C)[C@@]12OC3(/C=C/C=C/CCCCCCCCCC)O[C@@H]1[C@@H]1[C@@H]4O[C@]4(CO)[C@@H](O)[C@]4(O)C(=O)C(C)=C[C@H]4[C@@]1(O3)[C@H](C)[C@H]2O [Compound 6, Stelleralide I] | ≥135 | –
C=C(C)[C@]1(O)C[C@@H](C)[C@@]2(O)[C@H]([C@H]1OC(=O)/C=C/C=C/CCCCCCCCC)[C@H](O)[C@@](O)(CO)[C@@H](O)[C@]1(O)C(=O)C(C)=C[C@H]12 [Compound 7, Stelleralide J] | ≥100 | –
C=C(C)[C@]12C[C@@H](COC(=O)c3ccccc3)[C@]34OC5(CCCCCCC[C@H](C)[C@@H]6[C@@H]3[C@]3(O[C@]6(C)OC3=O)[C@H](O)[C@@]3(CO)O[C@H]3[C@H]4[C@H]1O5)O2 [Compound 8, stelleralide C] | ≥41 | < 50
C=C(C)[C@]12C[C@@H](C)[C@]34O[C@]5(CCCCCCC[C@H](C)[C@@H]6[C@@H]3[C@]3(O[C@]6(C)OC3=O)[C@H](O)[C@@]3(CO)O[C@H]3[C@H]4[C@H]1O5)O2 [Compound 9, pimelotide A] | ≥16 | < 50
C=C(C)[C@]12C[C@@H](COC(=O)c3ccccc3)[C@@]34OC5(O[C@@H]1[C@@H]3[C@@H]1O[C@]1(CO)[C@@H](O)[C@@]1(O)[C@H]4[C@H]([C@H](C)[C@@H]1OC(=O)c1ccccc1)[C@H](C)CCCCCC[C@H]5O)O2 [Compound 10, gnidimacrin] | ≥21500 | more than 10 000
C=C(C)[C@]12C[C@@H](C)[C@@]34OC5(CCCCCCC[C@@H](C)[C@H]6[C@H](C)[C@H](OC(=O)c7ccccc7)[C@@](O)([C@H](O)[C@@]7(CO)O[C@H]7[C@H]3[C@H]1O5)[C@@H]64)O2 [Compound 11, pimelea factor P2] | ≥14272 | more than 10 000
C=C(C)[C@]12C[C@@H](COC(=O)c3ccccc3)[C@@]34OC5(CCCCCCC[C@@H](C)[C@H]6[C@H](C)C(=O)[C@@](O)([C@H](O)[C@@]7(CO)O[C@H]7[C@H]3[C@H]1O5)[C@@H]64)O2 [Compound 12, wikstroelide F] | ≥318 | –
C=C(C)[C@@]12O[C@@]3(/C=C/C=C/CCCCCCCCC)O[C@@H]1[C@@H]1[C@@H]4O[C@]4(CO)[C@@H](O)[C@]4(O)C(=O)C(C)=C[C@H]4[C@@]1(O3)[C@H](C)[C@H]2OC(C)=O [Compound 13, wikstroelide A] | ≥1300 | –
C=C(C)[C@@]12OC3(/C=C/C=C/CCCCCCCCCC)O[C@@H]1[C@@H]1[C@@H]4O[C@]4(CO)[C@@H](O)[C@]4(O)C(=O)C(C)=C[C@H]4[C@@]1(O3)[C@H](C)[C@H]2OC(C)=O [Compound 14, wikstroelide B] | ≥392 | –
C=C(C)[C@]12C[C@@H](C)[C@@]34OC(/C=C/C=C/CCCCCCCCCC)(O[C@@H]1[C@@H]3[C@@H]1O[C@]1(CO)[C@@H](O)[C@]1(O)C(=O)C(C)=C[C@H]14)O2 [Compound 15, wikstrotoxin A] | ≥1284 | –
C=C(C)[C@]12C[C@@H](C)[C@@]34O[C@](/C=C/C=C/CCCCCCCCC)(O[C@@H]1[C@@H]3[C@@H]1O[C@]1(CO)[C@@H](O)[C@]1(O)C(=O)C(C)=C[C@H]14)O2 [Compound 16, huratoxin] | ≥5384 | –
C=C(C)[C@]1(O)C[C@@H](C)[C@@]2(O)[C@H]([C@H]1OC(=O)/C=C/C=C/CCCCCCCCC)[C@@H]1O[C@]1(CO)[C@@H](O)[C@]1(O)C(=O)C(C)=C[C@H]12 [Compound 17, wikstroelide M] | ≥281 | –
C=C(C)[C@@]1(O)[C@H](OC(=O)/C=C/C=C/CCCCCCCCC)[C@@H]2[C@@H]3O[C@]3(CO)[C@@H](O)[C@]3(O)C(=O)C(C)=C[C@H]3[C@@]2(O)[C@H](C)[C@H]1OC(C)=O [Compound 18, wikstroelide J] | ≥345 | –
C=C(C)[C@]12C[C@@H](C)[C@@]34O[C@](CCCCCCCCC)(O[C@@H]1[C@@H]3[C@@H]1O[C@]1(CO)[C@@H](O)[C@]1(O)C(=O)C(C)=C[C@H]14)O2 [Compound 19, simplexin] | ≥400 | –
